From paper PMC7356157, “Shorter Antibacterial Peptide Having High Selectivity for E. coli Membranes and Low Potential for Inducing Resistance” (Microorganisms, 2020)
In brackets after ≈: the same amount, converted by molar mass. Where two headings read alike, the source gives them in different places. No end group written: not given here.

How the values were obtained:
[1] = tested on: E. coli ML35 43827; type: cell-based; settings: broth microdilution
[2] = tested on: E. coli ML35 43827; test: Bactericidal activity (MBC); type: cell-based
Method: (§1) Bactericidal activity was evaluated by sowing an aliquot of Luria Bertani agar (LBA) in the wells where no growth had been detected in the MIC assay.

[3] = tested on: E. coli ATCC 25922; test: Bactericidal activity (MBC); type: cell-based; settings: aliquots of no-growth MIC wells on LBA, 18 h, 37 °C; kills 99.9%
Method: as §1

[4] = tested on: E. coli 35218 (ampicillin-resistant ATCC 35218 strain); type: cell-based; settings: broth microdilution
[5] = tested on: E. coli ATCC 11775; type: cell-based; settings: broth microdilution
[6] = tested on: E. coli 25922; test: Antibacterial activity in the presence of human sera; type: cell-based; settings: for MIC against E. coli 25922, Serum (without Pre-Incubation): peptide diluted in fresh human sera (100%), then inoculum in MHB ~5 × 10^5 CFU/mL, 18 h, 37 °C
Method: The second assay involved peptide dilution in fresh human sera (100%) pre-incubated for 6 h at 37 °C in a humid chamber before putting them in contact with the bacterial inoculum diluted in MHB (~5 × 10^5 CFU/mL). The assay was incubated and read as mentioned in the microdilution section.

[7] = tested on: P. aeruginosa 27853; test: MIC by broth microdilution; type: cell-based; settings: MHB, 18 h, 37 °C
[8] = tested on: E. coli ATCC 25922; type: cell-based; settings: for MIC E. coli 25922: broth microdilution, MHB, ~5 × 10^5 CFU/mL, 18 h, 37 °C, OD 620 nm, 100 to 0.2 µM; for MIC against E. coli 25922, MHB: no serum
[9] = tested on: human red blood cells (hRBC); test: Haemolytic activity (MHC); type: cell-based; settings: for MHC (minimum haemolytic concentration): 5% v/v hRBC in 1X PBS, 200–0.39 µM, 1 h, 37 °C, absorbance 560 nm
Method: A haemolytic activity assay was used for determining whether peptides acted on hRBC membrane by calculating the minimum haemolytic concentration (MHC). Briefly, 100 µL serial dilutions of peptides were incubated in a 96-well plate with an equal volume of a fresh hRBC suspension at 5% v/v in 1X PBS (200–0.39 µM final peptide concentrations). The samples were spun at 1000× g for 5 min after having been incubated at 37 °C for 1 h and a Multiskan spectrometer (Thermo Fisher) was used for measuring 100 µL supernatant absorbance at 560 nm. Treated hRBC absorbance 0.1% Triton X-100 or 100% haemolysis was used as positive control.

[10] = tested on: HeLa human cell line; settings: cited from earlier work
From the text: (§2) Its therapeutic index (TI) calculated for E. coli ML35 is 0.045, indicating low selectivity [[ ...

[11] = tested on: HepG2 human cell line; settings: cited from earlier work
From the text: as §2

[12] = tested on: human red blood cells (hRBC); settings: cited from earlier work
From the text: as §2

[13] = tested on: E. coli 35218; type: cell-based
Method: as §1

[14] = tested on: E. coli ATCC 25922; test: Potential for inducing bacterial resistance (serial subculture at 0.5 MIC); type: cell-based; settings: repeated treatment with 0.5× MIC, 18 days, two independent assays in duplicate
Method: The MIC against this subculture was then determined by micro-dilution in broth. […] Two independent assays were carried out in duplicate. MIC changes were plotted for each subculture (day of assay).

[15] = tested on: E. coli N°44 (clinical isolate); type: cell-based
Method: as §1
(§3) Approximately 50 bacterial samples were then collected from E. coli-infected patients for evaluating activity of the peptides against some clinical isolates. These samples were identified and biochemically and metabolically characterised using the VITEK-2 equipment. Isolates were profiled regarding their resistance or susceptibility to a panel of conventionally used antibiotics. Three E. coli isolates having different resistance profiles were then selected following such characterisation (Appendix A): • Isolate 4 (from urine): extended spectrum beta-lactamase (ESBL) (-), resistant to ampicillin, quinolones and co-trimoxazole. • Isolate 40 (from blood): ESBL (-), resistant to ampicillin, 1st-generation cephalosporins and co-trimoxazole. • Isolate 44 (from blood): ESBL (+), resistant to aminoglycosides, quinolones, β-lactams (including 1st-, 3rd- and 4th-generation cephalosporins).

[16] = tested on: P. aeruginosa 27853; test: Bactericidal activity (MBC); type: cell-based; settings: LBA, 18 h, 37 °C
Method: as §1

[17] = tested on: E. coli
Method: (§6) The checkerboard method was used for evaluating peptide antibacterial activity in combination with antibiotics [43]. […] Absorbance was measured at 620 nm and individual peptide and antibiotic MIC and combined MIC were obtained. […] The fractional inhibitory concentration index (FICI) was then calculated as the sum of peptide FIC + antibiotic FIC. A ≤ 0.5 FICI indicated synergy, 0.5 to ≤4 FICI indifference, and >4 FICI antagonism [45].
(§7) The results were interpreted by taking the lowest checkerboard FIC index (previously reported method 3) [44].

[18] = tested on: E. coli ML35; test: Permeabilising internal membrane (ONPG); type: cell-based; settings: 1× MIC
[19] = tested on: E. coli; remark: listed apart in the source
Method: as §6, §7

[20] = tested on: E. coli (ATCC strains and clinical isolates); test: MIC summarised over several E. coli strains; type: cell-based
Method: The standard broth microdilution method was used for determining the peptides’ MIC [41]. Briefly, serial peptide dilutions (100 to 0.2 µM concentration) were incubated in 96-well plates at 100 μL/well final volume for 18 h at 37 °C in a damp chamber with ~5 × 10^5 CFU/mL bacterial inoculum (calculated from the calibration curve equation previously obtained for each strain (Figure S1)). Optical density (OD) was measured at 620 nm after 18 h on a microplate reader. Bacteria in Müller–Hinton broth (MHB) were used as negative control. […] The MIC was determined as the lowest peptide concentration at which bacterial growth was not detected.

[21] = tested on: E. coli N°4 (clinical isolate); settings: broth microdilution; for MIC E. coli N°4: clinical isolate from urine
Method: (§4) The standard broth microdilution method was used for determining the peptides’ MIC [41]. […] Bacteria in Müller–Hinton broth (MHB) were used as negative control. […] The MIC was determined as the lowest peptide concentration at which bacterial growth was not detected.
(§5) Approximately 50 bacterial samples were then collected from E. coli-infected patients for evaluating activity of the peptides against some clinical isolates. These samples were identified and biochemically and metabolically characterised using the VITEK-2 equipment. Isolates were profiled regarding their resistance or susceptibility to a panel of conventionally used antibiotics.

[22] = tested on: E. coli N°44 (clinical isolate); settings: broth microdilution; for MIC E. coli N°44: clinical isolate from blood, ESBL (+)
Method: as §4, §5

[23] = tested on: E. coli N°40 (clinical isolate); settings: broth microdilution; for MIC E. coli N°40: clinical isolate from blood
Method: as §4, §5

[24] = tested on: E. coli N°40 (clinical isolate); type: cell-based
Method: as §1, §3

[25] = tested on: E. coli ATCC 11775; test: Bactericidal activity (MBC); type: cell-based
Method: as §1

[26] = tested on: E. coli clinical isolate 4; test: Resistance profile of clinical isolate (VITEK-2); type: cell-based; settings: Escherichia coli, isolate from urine
From the text: as §5

[27] = tested on: E. coli clinical isolate 44; test: Resistance profile of clinical isolate (VITEK-2); type: cell-based; settings: Escherichia coli, isolate from blood
From the text: as §5

[28] = tested on: E. coli clinical isolate 40; test: Resistance profile of clinical isolate (VITEK-2); type: cell-based; settings: Escherichia coli, isolate from blood
From the text: as §5

[29] = tested on: E. coli; test: microbe, parasite or virus in culture; settings: Escherichia coli, read-out: Individual gentamicin MIC
Method: as §6, §7

Row | Compound | MIC E. coli ML35 43827 [1] [µM] | MBC E. coli ML35 43827 [2] [µM] | MBC E. coli 25922 [3] [µM] | MIC E. coli 35218 [4] [µM] | MIC E. coli 11775 [5] [µM] | MIC against E. coli 25922, Serum (without Pre-Incubation) [6] [µM] | MIC P. aeruginosa 27853 [7] [µM] | MIC E. coli 25922 [8] [µM] | MIC against E. coli 25922, MHB [8] [µM] | MHC (minimum haemolytic concentration) [9] [µM] | MBC E. coli 35218 [13] [µM] | fold increase in MIC over initial MIC [14] | MBC E. coli N°44 [15] [µM] | MIC E. coli N°4 [21] [µM] | MIC E. coli N°44 [22] [µM] | MIC E. coli N°40 [23] [µM] | also measured
1 | RYRRKKKMKKALQYIKLLKE-NH2 [Peptide 35409, reference compound] | 25 | 25 | 50 | 6 | >100 | 25 | >100 | 25 | 25 | 1.56 | 6 |  |  |  |  |  | cytotoxic activity against HeLa [10]: did not have cytotoxic activity; cytotoxic activity against HepG2 [11]: did not have cytotoxic activity; MHC against human red blood cells [12]: 1.5 µM
2 | CN(C)[C@@H]1C(O)=C(C(N)=O)C(=O)[C@@]2(O)C(O)=C3C(=O)c4c(O)cccc4[C@@](C)(O)[C@H]3C[C@@H]12 [Tetracycline, tetracycline, reference compound] |  |  |  |  |  |  |  |  |  |  |  | 128 fold |  |  |  |  | 
3 | RKKKMKKALQYIKLLKE-NH2 [Peptide 35409-1] | 3 | 3 | 25 | 6 | >100 | 12.5 | 100 | 25 | 25 | >200 | 6 | eight-fold | 100 | >100 | 12.5 | 25 | MBC P. aeruginosa 27853 [16]: 100 µM; Interpretation ([17]; peptide + gentamicin): Indifference; x MIC Combination, Peptide ([17]; with gentamicin, fraction of individual peptide MIC (individual = 1)): 1/0.25 x MIC; MIC against E. coli 25922, Serum (6 h Pre-Incubation) ([6]; peptide in fresh human sera (100%) pre-incubated 6 h at 37 °C before inoculum, stability read-out): 50 µM; time at which maximum permeabilisation was reached ([18]; 1X PBS, 1.5 mM ONPG, 37 °C, 405 nm every 30 min for 4.5 h, triplicate): 1.5 h; permeabilisation of E. coli internal membrane ([18]; ONPG, 405 nm, 4.5 h): did act on E. coli internal membrane; Interpretation ([19]; peptide + ciprofloxacin): Indifference; x MIC Combination, Peptide ([19]; with ciprofloxacin, fraction of individual peptide MIC (individual = 1)): 1/1 x MIC; haemolysis relative to average MIC ([9]; concentration as multiple of average MIC 14.3 µM): did not induce haemolysis at 14-fold higher concentrations; average MIC against E. coli [20]: 14.3 µM
4 | KKMKKALQYIKLLK-NH2 [Peptide 35409-13] | 25 | 50 | 50 | 25 | 100 | 50 | >100 | 50 | 50 | >200 | 100 |  | 50 | >100 | 25 | 50 | MBC E. coli N°40 [24]: 100 µM; MBC E. coli 11775 [25]: > 100 µM; FIC Index ([17]; peptide + gentamicin, lowest checkerboard FIC index (method 3)): 0.75; FIC P (peptide) ([17]; with gentamicin): 0.25; FIC Index ([19]; peptide + ciprofloxacin, lowest checkerboard FIC index (method 3)): 3; FIC P (peptide) ([19]; with ciprofloxacin): 1
5 | CNC(C)C1CCC(N)C(OC2C(N)CC(N)C(OC3OCC(C)(O)C(NC)C3O)C2O)O1 (stereo not drawn) [Gentamicin, gentamicin] |  |  |  |  |  |  |  |  |  |  |  |  |  |  |  |  | MIC [26]: ≤ 1 µg/mL; MIC [27]: ≥ 16 µg/mL; MIC [28]: ≤ 1 µg/mL; MIC [29]: 0.5 µg/mL (≈ 1.05 µM); MIC E. coli N°4 (antibiotics) ([21]; clinical isolate): 2 µg/mL (≈ 4.19 µM); MIC E. coli N°44 (antibiotics) ([22]; clinical isolate): >16 µg/mL; MIC E. coli N°40 (antibiotics) ([23]; clinical isolate): 1 µg/mL (≈ 2.09 µM)
